In ChEMBL document CHEMBL4196117, “PK/PD Disconnect Observed with a Reversible Endothelial Lipase Inhibitor” (ACS Med Chem Lett, 2018):
The source made the active and inactive calls. The rule behind the calls is not given here.

Assays:
Endothelial lipase [1] = target: T1, Endothelial lipase (Homo sapiens, UniProt Q9Y5X9); test: Inhibition of endothelial lipase in human HT1080 cells using PED-A1 containing DMPG vesicles as substrate pretreated for 20 mins followed by substrate addition and measured every 20 secs for 10 mins by fluorescence assay; type: cell-based
T1 sequence (Q9Y5X9 whole entry): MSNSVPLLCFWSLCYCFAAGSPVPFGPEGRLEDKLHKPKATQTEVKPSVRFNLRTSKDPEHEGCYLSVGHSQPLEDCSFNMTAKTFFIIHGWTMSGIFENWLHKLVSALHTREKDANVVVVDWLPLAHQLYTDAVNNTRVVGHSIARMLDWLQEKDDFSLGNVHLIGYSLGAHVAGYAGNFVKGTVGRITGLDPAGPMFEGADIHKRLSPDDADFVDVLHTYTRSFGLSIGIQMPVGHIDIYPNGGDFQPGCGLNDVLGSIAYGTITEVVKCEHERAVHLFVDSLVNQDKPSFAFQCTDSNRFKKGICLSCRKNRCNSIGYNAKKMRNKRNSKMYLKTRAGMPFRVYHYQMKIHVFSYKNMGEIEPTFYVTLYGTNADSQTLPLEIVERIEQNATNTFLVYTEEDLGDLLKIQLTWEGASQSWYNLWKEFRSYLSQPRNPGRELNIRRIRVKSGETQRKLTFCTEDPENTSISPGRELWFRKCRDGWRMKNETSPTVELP

[2] = target: T2, Hepatic triacylglycerol lipase (Homo sapiens, UniProt P11150); test: Inhibition of recombinant human HL expressed in African green monkey COS7 cells using HDL as substrate pretreated for 10 mins followed by substrate addition and measured after 30 mins by LC/MS/MS analysis
T2 sequence (P11150 whole entry): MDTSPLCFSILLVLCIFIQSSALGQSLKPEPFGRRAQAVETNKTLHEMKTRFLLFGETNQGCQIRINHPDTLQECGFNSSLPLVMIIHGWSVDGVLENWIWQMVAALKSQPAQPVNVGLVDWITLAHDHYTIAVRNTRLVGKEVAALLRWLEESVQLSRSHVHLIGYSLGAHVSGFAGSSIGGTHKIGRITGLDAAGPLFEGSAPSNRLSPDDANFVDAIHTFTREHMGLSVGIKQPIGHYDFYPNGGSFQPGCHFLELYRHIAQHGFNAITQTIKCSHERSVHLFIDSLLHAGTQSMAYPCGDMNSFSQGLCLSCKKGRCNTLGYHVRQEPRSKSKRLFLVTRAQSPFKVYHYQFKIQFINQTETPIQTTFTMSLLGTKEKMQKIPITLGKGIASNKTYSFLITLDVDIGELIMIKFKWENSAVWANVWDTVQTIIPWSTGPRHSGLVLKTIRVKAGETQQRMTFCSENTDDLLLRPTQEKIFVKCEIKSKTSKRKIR

Lipoprotein lipase = target: T3, Lipoprotein lipase (Homo sapiens, UniProt P06858); test: Inhibition of recombinant human LPL expressed in African green monkey COS7 cells using DGGR/DMPG vesicles as substrate pretreated for 10 mins followed by substrate addition and measured for 5 mins
T3 sequence (P06858 whole entry): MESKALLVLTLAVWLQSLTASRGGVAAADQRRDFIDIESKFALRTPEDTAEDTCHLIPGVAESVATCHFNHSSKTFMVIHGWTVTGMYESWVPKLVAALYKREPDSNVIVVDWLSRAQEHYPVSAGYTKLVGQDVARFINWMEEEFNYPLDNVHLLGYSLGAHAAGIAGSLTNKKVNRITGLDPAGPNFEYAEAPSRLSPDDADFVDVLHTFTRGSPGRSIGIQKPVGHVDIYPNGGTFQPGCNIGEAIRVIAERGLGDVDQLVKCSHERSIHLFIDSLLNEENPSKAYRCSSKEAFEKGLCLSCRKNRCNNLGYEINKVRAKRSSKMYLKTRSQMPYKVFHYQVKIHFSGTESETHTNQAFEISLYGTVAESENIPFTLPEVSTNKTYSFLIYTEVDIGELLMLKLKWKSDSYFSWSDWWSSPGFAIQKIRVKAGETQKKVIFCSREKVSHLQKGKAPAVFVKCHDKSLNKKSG

[3] = target: T4, Endothelial lipase (Homo sapiens) (UniProt Q9Y5X9); test: Reversible inhibition of endothelial lipase in human HT1080 cells at 2 uM using PED-A1 containing DMPG vesicles as substrate pretreated for 20 mins followed by compound washout prior to substrate addition and measured every 20 secs for 10 mins by fluorescence assay; type: cell-based
T4 sequence (whole entry): T1 sequence (Q9Y5X9 whole entry)

[4] = Dissociation constant, pKa of the compound; type: physicochemical
[5] = Cmax in CD1 mouse at 1 mg/kg, iv administered as bolus dose; type: ADME, organism-based; design: dose 1 mg/kg, route intravenous; settings: in vivo
[6] = Total AUC in CD1 mouse at 1 mg/kg, iv administered as bolus dose; type: ADME, organism-based; design: dose 1 mg/kg, time AUCmax, route intravenous; settings: in vivo
[7] = Clearance in CD1 mouse at 1 mg/kg, iv administered as bolus dose; type: ADME, organism-based; settings: in vivo
[8] = Half life in CD1 mouse at 1 mg/kg, iv administered as bolus dose; type: ADME, organism-based; settings: in vivo
[9] = Cmax in CD1 mouse at 1 mg/kg, po administered as bolus dose; type: ADME, organism-based; design: dose 1 mg/kg, route oral; settings: in vivo
[10] = Total AUC in CD1 mouse at 1 mg/kg, po administered as bolus dose; type: ADME, organism-based; design: dose 1 mg/kg, route oral, time AUCmax; settings: in vivo
[11] = Half life in CD1 mouse at 1 mg/kg, po administered as bolus dose; type: ADME, organism-based; settings: in vivo
[12] = Oral bioavailability in CD1 mouse at 1 mg/kg administered as bolus dose; type: ADME, organism-based; settings: in vivo
Endothelial lipase [13] = target: T1, Endothelial lipase; test: Inhibition of endothelial lipase in human HT1080 cells using HDL as substrate pretreated for 10 mins followed by substrate addition and measured after 30 mins by LC/MS/MS analysis; type: cell-based
[14] = target: T4, Endothelial lipase (Homo sapiens); test: Ratio of IC50 for endothelial lipase in human HT1080 cells using HDL as substrate to IC50 for endothelial lipase in human HT1080 cells using PED-A1 containing DMPG vesicles as substrate; type: cell-based
[15] = target: T4, Endothelial lipase (Homo sapiens); test: Competitive inhibition of endothelial lipase in human HT1080 cells using varying level of HDL as substrate pretreated for 10 mins followed by substrate addition and measured after 30 mins by LC/MS/MS analysis; type: cell-based
[16] = target: T5, Endothelial lipase (Mus musculus) (UniProt Q9WVG5); test: Competitive inhibition of recombinant mouse endothelial lipase expressed in HEK293F cells using varying levels of HDL as substrate pretreated for 10 mins followed by substrate addition and measured after 30 mins by LC/MS/MS analysis
T5 sequence (whole entry): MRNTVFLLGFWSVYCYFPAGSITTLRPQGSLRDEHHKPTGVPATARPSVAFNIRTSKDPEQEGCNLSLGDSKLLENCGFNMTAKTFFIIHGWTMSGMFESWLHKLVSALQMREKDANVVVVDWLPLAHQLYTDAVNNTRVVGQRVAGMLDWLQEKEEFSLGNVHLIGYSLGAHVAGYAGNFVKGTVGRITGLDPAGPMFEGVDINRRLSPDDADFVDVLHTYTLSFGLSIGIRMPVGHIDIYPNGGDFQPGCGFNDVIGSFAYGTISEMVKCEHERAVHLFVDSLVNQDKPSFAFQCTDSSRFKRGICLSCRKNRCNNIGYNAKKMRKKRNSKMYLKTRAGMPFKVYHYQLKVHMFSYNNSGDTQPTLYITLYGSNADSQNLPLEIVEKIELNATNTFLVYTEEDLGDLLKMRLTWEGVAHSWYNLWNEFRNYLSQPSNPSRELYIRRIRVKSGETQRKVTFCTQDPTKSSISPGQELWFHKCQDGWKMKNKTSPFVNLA

Homo sapiens [17] = species on record: Homo sapiens; test: Selectivity ratio of IC50 for recombinant human LPL expressed in African green monkey COS7 cells to IC50 for endothelial lipase in human HT1080 cells using PED-A1 containing DMPG vesicles as substrate; type: cell-based
Homo sapiens [18] = species on record: Homo sapiens; test: Selectivity ratio of IC50 for MAGL (unknown origin) to IC50 for endothelial lipase in human HT1080 cells using PED-A1 containing DMPG vesicles as substrate; type: cell-based
Homo sapiens [19] = species on record: Homo sapiens; test: Selectivity ratio of IC50 for recombinant human PL expressed in HEK293F cells to IC50 for endothelial lipase in human HT1080 cells using PED-A1 containing DMPG vesicles as substrate; type: cell-based
Homo sapiens [20] = species on record: Homo sapiens; test: Selectivity ratio of IC50 for recombinant human HL expressed in African green monkey COS7 cells using HDL as substrate to IC50 for endothelial lipase in human HT1080 cells using HDL as substrate; type: cell-based
Mus musculus = test: Effect on plasma HDL-C level in C57BL/6J mouse at 10 to 50 mg/kg, po qd for 5 days measured at 1 day for 5 days; type: functional, organism-based

Row | SMILES | IC50 (Endothelial lipase [1]) | IC50 (Endothelial lipase [13]) | Ratio IC50 [14] | also measured
1 | CN1CC(C(=O)NCCc2ccc(Cl)c(Cl)c2)=C(O)C1=O | 296 nM | – | – | –
2 | CN1CC(C(=O)NCCCc2ccccc2)=C(O)C1=O | 5830 nM | – | – | –
3 | Cn1ccc(C(=O)NCCCc2ccc(Cl)c(Cl)c2)c(O)c1=O | 61 nM | – | – | IC50 [2]: 16 nM; IC50 (Lipoprotein lipase): > 90000 nM; inhibition [3]: Active; pKa [4]: 6.5; Cmax [5]: 25 µM; AUC [6]: 19 µM·h; clearance [7]: 2.5 mL/min/kg; half-life [8]: 4.9 h; Cmax [9]: 2 µM; AUC [10]: 16 µM·h; half-life [11]: 2.9 h; bioavailability [12]: 82%
4 | CCN1CC(C(=O)NCCCc2ccc(Cl)c(Cl)c2)=C(NCCCN2CCCCC2)C1=O | 25 nM | 4210 nM | > 50 | –
5 | CN1C(=O)C(O)=C(C(=O)NCCCc2ccc(Cl)c(Cl)c2)C1c1ccccc1Cl (centres undefined) | 59 nM | 5750 nM | 60 to 100 | –
6 | CN1C(=O)C(O)=C(C(=O)NCCCc2ccc(Cl)c(Cl)c2)C1CC(C)(C)C (centres undefined) | 29 nM | 1770 nM | 60 to 100 | –
7 | CCN1CC(C(=O)NC(C)CCc2ccc(Cl)c(Cl)c2)=C(O)C1=O (stereo in doubt; 7c) | – | – | – | inhibition [15]: inactive; inhibition [16]: inactive; Ratio IC50 (Homo sapiens [17]): > 250; Ratio IC50 (Homo sapiens [18]): > 250; Ratio IC50 (Homo sapiens [19]): > 250; Ratio IC50 (Homo sapiens [20]): 12; Activity (Mus musculus): inactive
8 | CCN1CC(C(=O)NCCCc2ccc(Cl)c(Cl)c2)=C(NCCOC(C)C)C1=O | 19 nM | 945 nM | > 50 | –
9 | CCN1CC(C(=O)NC(C)CCc2ccc(Cl)c(Cl)c2)=C(O)C1=O (racemic) | 44 nM | 264 nM | – | –
10 | CCN1CC(C(=O)NCCCc2ccc(Cl)c(Cl)c2)=C(NC)C1=O | < 10 nM | 3020 nM | > 50 | –
11 | O=C(NCCCc1ccc(Cl)c(Cl)c1)C1=C(O)C(=O)N(CCCN2CCCC2=O)C1 | 19 nM | 2440 nM | 11 to 150 | –
12 | CCN1CC(C(=O)NCCCc2ccc(Cl)c(Cl)c2)=C(O)C1=O | 30 nM | 3520 nM | 11 to 150 | –
13 | O=C(NCCCc1ccc(Cl)c(Cl)c1)C1=C(O)C(=O)N(CCN2CCOCC2)C1 | 190 nM | – | – | –
14 | CCN1CC(C(=O)NC(C)CCc2ccc(Cl)c(Cl)c2)=C(O)C1=O (stereo in doubt; 7d) | 910 nM | 835 nM | – | –
15 | CS(=O)(=O)NC(=O)CCN1CC(C(=O)NCCCc2ccc(Cl)c(Cl)c2)=C(O)C1=O | 95 nM | 1050 nM | 11 to 150 | –
16 | O=C(NCCCc1ccc(Cl)c(Cl)c1)C1=C(O)C(=O)N(CCOc2ccccc2)C1 | – | 826 nM | 11 to 150 | –
17 | CN1C(=O)C(O)=C(C(=O)NCCCc2ccc(Cl)c(Cl)c2)C1C1CC1 (centres undefined) | 88 nM | 5290 nM | 60 to 100 | –
18 | CN1CC(C(=O)NCCCc2ccc(Cl)c(Cl)c2)=C(O)C1=O | 41 nM | 1760 nM | 11 to 150 | IC50 [2]: 76 nM; IC50 (Lipoprotein lipase): > 37000 nM; pKa [4]: 4.8; Cmax [5]: 32 µM; AUC [6]: 24 µM·h; clearance [7]: 2.1 mL/min/kg; half-life [8]: 3.4 h; Cmax [9]: 8.2 µM; AUC [10]: 18 µM·h; half-life [11]: 3.2 h; bioavailability [12]: 76%
19 | O=C(NCCCc1ccc(Cl)c(Cl)c1)C1=C(O)C(=O)N(Cc2ccccc2)C1 | – | – | 11 to 150 | –
20 | CCN1CC(C(=O)NCCCc2ccc(Cl)c(Cl)c2)=C(NCCc2ccncc2)C1=O | 59 nM | 5990 nM | > 50 | –
